# Results: patent US9156791B2, “Pyrazole compounds acting against allergic, immune and inflammatory conditions” (Glaxo Group Limited, priority 2010, dated 2015)
# pIC50: −log10 of the molar value.
# Experiments:
# [1] = tested on: ICRAC current; assay: ICRAC assay: thapsigargin-induced calcium influx in Jurkat E6-1 cells (Fluo-4, FLIPR); type: cell-based; settings: Homo sapiens, thapsigargin 5 μM, calcium add-back, inhibition of maximal fluorescence signal
# Experimental: This ICRAC assay uses the SERCA inhibitor thapsigargin to produce calcium depletion and activate an ICRAC current. […] Changes in intracellular calcium levels are determined by the inclusion of the calcium sensitive fluorescent dye Fluo-4 and the use of the FLIPR detection system. Inhibitors of ICRAC would be expected to decrease the calcium influx upon calcium add-back, thus reducing fluorescent signal.
# Jurkat E6-1 is an established immortalised T lymphocyte cell line previously shown to express a functional ICRAC current. Jurkat cells grow in suspension, are cultured in DMEM+10% FBS, maintained in T175 flasks at 37° C./5% CO2, and are subcultured twice a week with either 1:10-1:20 splits. 1 confluent T175 yields 100 ml of approximately 2×10^6 cells/ml.
# Loading buffer contains; NaCl 145 mM, KCl 2.5 mM, HEPES 10 mM, Glucose 10 mM, MgCl2 1.2 mM, made up with water, then pH adjusted to 7.4 using NaOH 1 M. Finally Fluo-4AM & brilliant black are added to give a final assay concentration of 2 μM and 250 μM respectively. […]
# The required seeding density for a 384 plate is 20,000 cells per well. […] Plates are then transferred to the FLIPR which initially measures baseline fluorescence, followed by any increase in fluorescence evoked by the online addition of a 6 mM (1.2 mM FAC) calcium solution. […]
# [2] = In vitro microsomal clearance, human; type: in vitro ADME
# [3] = In vitro microsomal clearance, rat; type: in vitro ADME
# [4] = In vitro microsomal clearance, dog; type: in vitro ADME; settings: Dog (Beagle)
pIC50 [1],CIint [2] [mL/min g liver],CIint ([3]; Rat (CD)) [mL/min g liver],CIint ([3]; Rat (Wistar Han)) [mL/min g liver],CIint [4] [mL/min g liver],Structure (SMILES)
5.50,0.80,1.67,2.05,0.98,"O=C(Nc1cnn(Cc2c(F)cccc2C(F)(F)F)c1)c1c(F)cccc1F [Example 1, 2,6-Difluoro-N-(1-{[2-fluoro-6-(trifluoromethyl)phenyl]methyl}-1H-pyrazol-4-yl)benzamide]"
,<0.5,0.95,1.16,0.80,"[2H]C([2H])(c1c(F)cccc1C(F)(F)F)n1cc(NC(=O)c2c(F)cccc2F)cn1 [Example 3, 2,6-Difluoro-N-(1-(2-fluoro-6-(trifluoromethyl)-d2-benzyl)-1H-pyrazol-4-yl)benzamide]"
